{
  "source": "patent US7417044B2",
  "about": "“Tadalafil having a large particle size and a process for preparation thereof” (Teva Pharmaceutical Industries Ltd., priority 2005, dated 2008)",
  "key": {"[1]": {"assay": "Particle size of tadalafil by Malvern laser diffraction (Mastersizer S)", "assay_type": "physicochemical", "source_text": "Measurement and characterization of particle size distributions is known in the art. It is possible to compare samples of particulate tadalafil on the basis of individual points on a cumulative particle size distribution curve. The measurements are represented as d(0.X)=Y (where X and Y are Arabic numerals), each “d” describing an individual point on a cumulative PSD curve. The number “X” represents the percentage (number, volume, or weight) of particles in the population having a nominal size up to and including “Y”. Thus, d(0.9)=250μ is characteristic of a PSD in which 90% (number, volume, or weight) of the particles in a population have a nominal size of about 250μ or less (at least some particles having a nominal dimension of 250μ) and so forth. When PSD is determined by the well-know laser-diffraction method described herein, the d(0.X) measurement depicts a volume average. The particle size of tadalafil described herein was measured by Malvern Laser Diffraction using a Mastersizer S instrument. The measuring instrument was equipped with a small cell dispersion unit MS1 with a digital dispersion unit controller. The measurement was performed by using range lens 300RF (working range 0.05-900 mcm), beam length: 2.40 mm, presentation 3$$D (Fraunhofer), number of sweeps 4000, and speed rate 2300±10 rpm. The dilution medium was 0.1% w/v Span 80 in a saturated solution of tadalafil in cyclohexane. The measurement began after 10 seconds of recirculation, after the powder was added directly into the measurement cell filled with the dilution medium. According to the accepted rules of Good Manufacturing Procedures, a sample of tadalafil was measured after a successful blank measurement (% obscuration NMT 0.1%) was performed."}, "[2]": {"conditions": "prior-art tadalafil of U.S. Pat. No. 6,821,975; cited from earlier work"}},
  "note": "Where “and” joins values, the source holds several entries; their conditions need not be identical. Equal entries are not always repeated.",
  "data": [
    {"smiles": "CN1CC(=O)N2[C@H](c3ccc4c(c3)OCO4)c3[nH]c4ccccc4c3C[C@@H]2C1=O", "note": "[tadalafil, (6R-trans)-6-(1,3-benzodioxol-5-yl)-2,3,6,7,12,12a-hexahydro-2-methyl-pyrazino[1′,2′:1,6]pyrido[3,4-b]indole-1,4-dione]", "values": [
      {"measurement": "particle size, d(0.9)", "setting": "[1]; Example 1, final dry material after industrial-scale crystallization from acetone/water with heating/cooling cycles", "value": "60-500 microns"},
      {"measurement": "particle size, d(0.9)", "setting": "[1]; Example 2, final dry material after crystallization from acetone/water with heating/cooling cycles", "value": "> 60", "unit": "microns"},
      {"measurement": "particle size, d(0.9)", "setting": "[1]; Example 3, after milling with micronizer, 50 mm, 4.0 bar feed air and 3.0 bar milling air", "value": "about 228.7 microns"},
      {"measurement": "particle size, d(0.9)", "setting": "[1]; Example 4, after milling with micronizer, 50 mm, 2.0 bar feed air and 1.0 bar milling air", "value": "about 105.8 microns"},
      {"measurement": "particle size, d(0.9)", "setting": "[1]; Example 5, after milling with Pin-Mill, 9.6 Kg/hr feed rate and 12,000 rpm milling speed", "value": "about 52.4 microns"},
      {"measurement": "particle size, d(0.9)", "setting": "[1]; Example 6, after milling with Pin-Mill, 9.6 Kg/hr feed rate and 4500 rpm milling speed", "value": "about 202.7 microns"},
      {"measurement": "particle size, d(0.9)", "setting": "[1]; starting sample before milling (Examples 3-6)", "value": "584 microns and 538.6 microns and 553.5 microns"},
      {"measurement": "particle size of 90% of the particles", "setting": "[2]", "value": "less than 40 microns"}
    ]}
  ]
}
